From patent US8999938B2, “Ophthalmic lipophilic drug delivery vehicle formulations” (GNT, LLC, priority 2013, dated 2015)
Where two headings read alike, the source gives them in different places.

How the values were obtained:
[1] = Description: Oily vehicles such as castor oil solubilize, but these have poor compliance.
[2] = for max soluble concentration: in water
Description: The solubility of α-2 agonists, in particular, decreases exponentially at an increased pH.

Cc1cccc([C@H](C)c2cnc[nH]2)c1C [dexmedetomidine]
concentration solubilized in the provided compositions [1]: ≥ 0.15% | max soluble concentration ([2]; pH solution 6.0): 0.195% | max soluble concentration ([2]; pH solution 6.4): 0.060% | max soluble concentration ([2]; pH solution 7.0): 0.023% | max soluble concentration ([2]; pH solution 7.4): 0.015% | max soluble concentration ([2]; pH solution 8.0): 0.013% | degree of solubility ([2]; pH of 4.0 to 6.0): very high degree of solubility
